How the values were obtained:
Mycobacterium avium [1] = conditions: isolate MAV4
Description: Inhibition of multidrug resistance efflux pump in Mycobacterium avium isolate MAV4 assessed as potentiation of ethidium bromide-induced antibacterial activity by measuring ethidium bromide MIC at 1/4 MIC incubated for 3 days by MTT assay

[2] = test system: Mycobacterium avium subsp. avium ATCC 25291
Description: Inhibition of multidrug resistance efflux pump in Mycobacterium avium ATCC 25291 assessed as potentiation of ethidium bromide-induced antibacterial activity by measuring ethidium bromide MIC at 1/2 MIC incubated for 3 days by MTT assay (Rvb = 50 ug/ml)

Mycobacterium avium [3] = conditions: isolate MAV4; remark: listed apart in the source
Description: Inhibition of multidrug resistance efflux pump in Mycobacterium avium isolate MAV4 assessed as potentiation of clarithromycin -induced antibacterial activity by measuring clarithromycin MIC at 1/2 MIC incubated for 3 days by MTT assay

[4] = test system: Mycobacterium avium subsp. avium ATCC 25291; remark: listed apart in the source
Description: Inhibition of multidrug resistance efflux pump in Mycobacterium avium ATCC 25291 assessed as potentiation of clarithromycin -induced antibacterial activity by measuring clarithromycin MIC at 1/2 MIC incubated for 3 days by MTT assay

Mycobacterium avium [5] = conditions: isolate MAV1
Mycobacterium avium [6] = conditions: isolate MAV3
Mycobacterium avium [7] = conditions: 104
Mycobacterium avium [8] = conditions: isolate MAV4; remark: listed apart in the source
Description: Inhibition of multidrug resistance efflux pump in Mycobacterium avium isolate MAV4 assessed as potentiation of clarithromycin -induced antibacterial activity by measuring clarithromycin MIC at 1/4 MIC incubated for 3 days by MTT assay

Mycobacterium avium [9] = conditions: isolate MAV1; remark: listed apart in the source
Description: Inhibition of multidrug resistance efflux pump in Mycobacterium avium isolate MAV1 assessed as potentiation of ofloxacin-induced antibacterial activity by measuring ofloxacin MIC at 1/4 MIC incubated for 3 days by MTT assay (Rvb = 4 ug/ml)

Mycobacterium avium [10] = conditions: 104; remark: listed apart in the source
Mycobacterium avium [11] = conditions: isolate MAV3; remark: listed apart in the source
Mycobacterium avium [12] = conditions: isolate MAV1; remark: listed apart in the source
[13] = Safety index, ratio of MTC for test compound to MTC for thioridazine for cytotoxicity in human monocyte-derived macrophages; format: cell-based, Macrophage cell line
Mycobacterium avium [14] = conditions: isolate MAV3; remark: listed apart in the source
Mycobacterium avium [15] = conditions: 104 mc'2 3
Mycobacterium avium [16] = conditions: isolate MAV4; remark: listed apart in the source
Mycobacterium avium [17] = conditions: 104 mc'2 3; remark: listed apart in the source
Mycobacterium avium [18] = assay: Antimycobacterial activity against Mycobacterium avium isolate MAV1 assessed as reduction in bacterial viability incubated for 3 days by MTT assay; format: organism-based; conditions: in vitro, 72 h
[19] = test system: Mycobacterium avium subsp. avium ATCC 25291; remark: listed apart in the source
[20] = test system: Mycobacterium avium subsp. avium ATCC 25291; remark: listed apart in the source
Description: Inhibition of multidrug resistance efflux pump in Mycobacterium avium ATCC 25291 assessed as potentiation of clarithromycin -induced antibacterial activity by measuring clarithromycin MIC at 1/4 MIC incubated for 3 days by MTT assay

[21] = test system: Mycobacterium avium subsp. avium ATCC 25291; remark: listed apart in the source
Description: Inhibition of multidrug resistance efflux pump in Mycobacterium avium ATCC 25291 assessed as potentiation of ethidium bromide-induced antibacterial activity by measuring ethidium bromide MIC at 1/4 MIC incubated for 3 days by MTT assay

[22] = test system: Mycolicibacterium smegmatis; assay: Antimycobacterial activity against Mycobacterium smegmatis str. MC2 155 assessed as reduction in bacterial viability incubated for 3 days by MTT assay; format: organism-based; conditions: 72 h
Mycobacterium avium [23] = conditions: isolate MAV3; remark: listed apart in the source
Mycobacterium avium [24] = conditions: 104 mc'2 3; remark: listed apart in the source
Mycobacterium avium [25] = conditions: 104 mc'2 3; remark: listed apart in the source
Mycobacterium avium [26] = conditions: isolate MAV2
[27] = test system: Mycobacterium avium subsp. avium ATCC 25291; remark: listed apart in the source
[28] = test system: Mycobacterium avium subsp. avium ATCC 25291; remark: listed apart in the source
Mycobacterium avium [29] = conditions: isolate MAV3; remark: listed apart in the source
Mycobacterium avium [30] = conditions: isolate MAV2; remark: listed apart in the source
Mycobacterium avium [31] = conditions: 104; remark: listed apart in the source
Mycobacterium avium [32] = conditions: 104 mc'2 3; remark: listed apart in the source
Mycobacterium avium [33] = conditions: in vivo, 72 h
Description: Antimycobacterial activity against Mycobacterium avium 104 mc'2 3 assessed as reduction in bacterial viability incubated for 3 days by MTT assay

Mycobacterium avium [34] = conditions: isolate MAV1; remark: listed apart in the source
Mycobacterium avium [35] = conditions: 104 mc'2 4
Mycobacterium avium [36] = conditions: isolate MAV2; remark: listed apart in the source
Mycobacterium avium [37] = conditions: isolate MAV4; remark: listed apart in the source
[38] = Safety index, ratio of MTC for test compound to MTC for chlorpromazine for cytotoxicity in human monocyte-derived macrophages; format: cell-based, Macrophage cell line
Mycobacterium avium [39] = conditions: 104 mc'2 4; remark: listed apart in the source
Mycobacterium avium [40] = conditions: isolate MAV1; remark: listed apart in the source
Mycobacterium avium [41] = conditions: 104; remark: listed apart in the source
Mycobacterium avium [42] = conditions: isolate MAV2; remark: listed apart in the source
Description: Inhibition of multidrug resistance efflux pump in Mycobacterium avium isolate MAV2 assessed as potentiation of ofloxacin-induced antibacterial activity by measuring ofloxacin MIC at 1/2 MIC incubated for 3 days by MTT assay

Mycobacterium avium [43] = conditions: isolate MAV1; remark: listed apart in the source
Mycobacterium avium [44] = conditions: 104 mc'2 4; remark: listed apart in the source
Mycobacterium avium [45] = conditions: isolate MAV1; remark: listed apart in the source
Description: Inhibition of multidrug resistance efflux pump in Mycobacterium avium isolate MAV1 assessed as potentiation of ciprofloxacin-induced antibacterial activity by measuring ciprofloxacin MIC at 1/2 MIC incubated for 3 days by MTT assay (Rvb = 2 ug/ml)

Mycobacterium avium [46] = conditions: 104; remark: listed apart in the source
Description: Inhibition of multidrug resistance efflux pump in Mycobacterium avium 104 assessed as potentiation of clarithromycin -induced antibacterial activity by measuring clarithromycin MIC at 1/4 MIC incubated for 3 days by MTT assay

Mycobacterium avium [47] = conditions: isolate MAV1; remark: listed apart in the source
Description: Inhibition of multidrug resistance efflux pump in Mycobacterium avium isolate MAV1 assessed as potentiation of ofloxacin-induced antibacterial activity by measuring ofloxacin MIC at 1/2 MIC incubated for 3 days by MTT assay (Rvb = 4 ug/ml)

Mycobacterium avium [48] = conditions: isolate MAV1; remark: listed apart in the source
Mycobacterium avium [49] = conditions: 104 mc'2 4; remark: listed apart in the source
Mycobacterium avium [50] = conditions: 104; remark: listed apart in the source
[51] = Safety index, ratio of CC50 for test compound to CC50 for chlorpromazine for cytotoxicity in human monocyte-derived macrophages; format: cell-based, Macrophage cell line
Mycobacterium avium [52] = conditions: isolate MAV2; remark: listed apart in the source
Description: Inhibition of multidrug resistance efflux pump in Mycobacterium avium isolate MAV2 assessed as potentiation of clarithromycin -induced antibacterial activity by measuring clarithromycin MIC at 1/4 MIC incubated for 3 days by MTT assay (Rvb = >1024 ug/ml)

Mycobacterium avium [53] = assay: Antimycobacterial activity against Mycobacterium avium isolate MAV3 assessed as reduction in bacterial viability incubated for 3 days by MTT assay; format: organism-based; conditions: 72 h
Mycobacterium avium [54] = conditions: isolate MAV1; remark: listed apart in the source
Description: Inhibition of multidrug resistance efflux pump in Mycobacterium avium isolate MAV1 assessed as potentiation of ciprofloxacin-induced antibacterial activity by measuring ciprofloxacin MIC at 1/4 MIC incubated for 3 days by MTT assay

Mycobacterium avium [55] = conditions: isolate MAV3; remark: listed apart in the source
Mycobacterium avium [56] = conditions: isolate MAV4; remark: listed apart in the source
[57] = test system: Mycobacterium avium subsp. avium ATCC 25291; remark: listed apart in the source
Mycobacterium avium [58] = conditions: 104 mc'2 4; remark: listed apart in the source
[59] = test system: Mycobacterium avium subsp. avium ATCC 25291; remark: listed apart in the source
Mycobacterium avium [60] = conditions: isolate MAV4; remark: listed apart in the source
Mycobacterium avium [61] = conditions: 104 mc'2 4; remark: listed apart in the source
Mycobacterium avium [62] = conditions: 104 mc'2 4; remark: listed apart in the source
Mycobacterium avium [63] = conditions: isolate MAV1; remark: listed apart in the source
Mycobacterium avium [64] = conditions: 104 mc'2 4; remark: listed apart in the source
Mycobacterium avium [65] = conditions: isolate MAV3; remark: listed apart in the source
Mycobacterium avium [66] = conditions: isolate MAV3; remark: listed apart in the source
Mycobacterium avium [67] = conditions: isolate MAV4; remark: listed apart in the source

CCCOc1ccc(-c2cn(CCN(CC)CC)c3ccccc3c2=O)cc1
64 µg/mL: MIC (Mycobacterium avium [16]) | MIC [57]
12.5 µg/mL: MIC (Mycobacterium avium [1]) | MIC (Mycobacterium avium [29])
128 µg/mL: MIC (Mycobacterium avium [18]) | MIC (Mycobacterium avium [23]) | MIC [27] | MIC (Mycobacterium avium [53]) | MIC (Mycobacterium avium [66])
3.12 µg/mL: MIC (Mycobacterium avium [17]) | MIC (Mycobacterium avium [48]) | MIC (Mycobacterium avium [49]) | MIC (Mycobacterium avium [50])
1020 µg/mL: MIC (Mycobacterium avium [52])
4 µg/mL: MIC (Mycobacterium avium [6]) | MIC (Mycobacterium avium [9]) | MIC (Mycobacterium avium [15]) | MIC (Mycobacterium avium [35]) | MIC (Mycobacterium avium [37]) | MIC (Mycobacterium avium [41]) | MIC (Mycobacterium avium [47])
> 512 µg/mL: MIC (Mycobacterium avium [26]) | MIC (Mycobacterium avium [61])
1 µg/mL: MIC (Mycobacterium avium [3]) | MIC (Mycobacterium avium [42]) | MIC (Mycobacterium avium [46])
512 µg/mL: MIC (Mycobacterium avium [24]) | MIC (Mycobacterium avium [32]) | MIC (Mycobacterium avium [36]) | MIC (Mycobacterium avium [44]) | MIC (Mycobacterium avium [64])
25 µg/mL: MIC [2] | MIC [21]
256 µg/mL: MIC (Mycobacterium avium [11]) | MIC [22] | MIC (Mycobacterium avium [33]) | MIC (Mycobacterium avium [60]) | MIC (Mycobacterium avium [62])
2 µg/mL: MIC (Mycobacterium avium [25]) | MIC (Mycobacterium avium [45]) | MIC (Mycobacterium avium [54]) | MIC (Mycobacterium avium [58]) | MIC (Mycobacterium avium [63])
6.25 µg/mL: MIC (Mycobacterium avium [30]) | MIC (Mycobacterium avium [31]) | MIC (Mycobacterium avium [39]) | MIC (Mycobacterium avium [40])
4 to 6: selectivity ratio [13]
2 to 4: selectivity ratio [38] | selectivity ratio [51]
32 µg/mL: MIC [28] | MIC (Mycobacterium avium [34]) | MIC (Mycobacterium avium [43]) | MIC (Mycobacterium avium [55])
8 µg/mL: MIC [4] | MIC (Mycobacterium avium [8]) | MIC (Mycobacterium avium [12]) | MIC (Mycobacterium avium [14]) | MIC [19] | MIC [20] | MIC (Mycobacterium avium [56])
16 µg/mL: MIC (Mycobacterium avium [5]) | MIC (Mycobacterium avium [7]) | MIC (Mycobacterium avium [10]) | MIC [59] | MIC (Mycobacterium avium [65]) | MIC (Mycobacterium avium [67])
